Measurements published in US12133714B2, “Line excitation array detection microscopy” (BOARD OF REGENTS, THE UNIVERSITY OF TEXAS SYSTEM, priority 2018, dated 2024).
“Also recorded” adds a separate entry of the source.

How the values were obtained:
[1] = tested on: polyQ40 strain C. elegans (polyglutamine mediated aggregation of YFP-labeled protein in body wall muscle cells); settings: polyQ40 animals, earlier publication (ref. 37); cited from earlier work
[2] = tested on: polyQ40 strain C. elegans (polyglutamine mediated aggregation of YFP-labeled protein in body wall muscle cells); assay: LEAD flow cytometry imaging of polyQ aggregation model C. elegans treated with drug; format: in vivo; settings: for number of fluorescent protein aggregates per animal (median ± standard deviation): polyQ40 animals treated at L1 stage, imaged at late L4 stage, untreated polyQ40 27±3
Description: The model simulates human Huntington's disease through CAG repeats in the huntingtin allele, with 35 or more repeats resulting in polyglutamine (polyQ) mediated aggregation, protein misfolding, and cellular toxicity^36. Specifically, the polyQ40 strain was imaged with 40 CAG repeats at the late L4 stage when the disease phenotype presents as aggregation of YFP-labeled protein in the body wall muscle cells. The aggregates are 1-5 μm in diameter and distributed in 3D along the length of the animal, and therefore requires relatively high resolution volumetric imaging. […] Populations of up to 300 animals were imaged. The animals moved at 0.89±0.31 m/s through the imaging channel, resulting in an imaging time of 1.07±0.26 ms per animal with the majority of the population imaged within 1 second (See FIGS. 10B, 10C). The maximum available laser power of 4 mW at the sample was sufficient to utilize the full dynamic range of our collection system. […] Despite the ultrafast scanning, C. elegans images show SNRs exceeding 500 for the center PMT elements and slightly lower SNR for the less responsive surrounding elements in accordance with the PMT specifications (see FIG. 9D). 27±3 (median±standard deviation) aggregates per animal for the polyQ40 strain were found, similar to previous findings for worms at the same stage^36. […] PolyQ40 animals were treated with either 25 or 50 μM dronedarone at the L1 stage, and were imaged at the late L4 stage (FIG. 16A). The drug reduced aggregation to 16±5 and 7±2 aggregates per animal for 25 μM and 50 μM, respectively, showing a dose response (FIG. 16B). The system's high-speed 3D imaging capability for drug screening is established by the short imaging time for the effectivity of dronedarone reaches a statistically significant level—animals treated with 25 and 50 μM dronedarone reach p=0.001 in under 0.25 s and 0.10 s, respectively (FIG. 16C). […]

Which “effect on formation of aggregates, previously observed (in words)” value [1] does the source give for `CCCCc1oc2ccc(NS(C)(=O)=O)cc2c1C(=O)c1ccc(OCCCN(CCCC)CCCC)cc1` [dronedarone] here?
The value was “prevents the formation of aggregates in the polyQ40 animals”.

And the “number of fluorescent protein aggregates per animal (median ± standard deviation)” value ([2]; 25 μM)?
The value was 16±5 aggregates per animal.

And the “number of fluorescent protein aggregates per animal (median ± standard deviation)” value ([2]; 50 μM)?
The value was 7±2 aggregates per animal.

And the “effect on formation of protein aggregates (in words)” value ([2]; polyQ40 animals, 25 and 50 μM, LEAD imaging)?
Its value is “prevents the formation of protein aggregates with a dose response; also recorded: can reduce aggregation with a dose response”.
